Source: article PMC12210912, “Pharmacologic properties and inhibitory activity of 6-azasteroids against Mycobacterium leprae in vivo and in vitro” (Microbiology Spectrum, 2025)

Tests used:
M. leprae 3β-HSD = system: M. leprae 3β-HSD; design: method as in PMID 34395315; details: cited from earlier work
M. leprae = system: M. leprae; design: method as in PMID 34395315; details: cited from earlier work
Androgen Receptor = molecular target: T1, Androgen Receptor (Homo sapiens, UniProt P10275, T878A); experiment: androgen receptor radioligand binding inhibition; details: [3H]methyltrienolone binding, LNCaP cells cytosol
T1 construct: (ii) AR (human) LNCaP cells (cytosol); host or cells: LNCaP cells (cytosol)
T1 sequence (P10275 1-920 T878A): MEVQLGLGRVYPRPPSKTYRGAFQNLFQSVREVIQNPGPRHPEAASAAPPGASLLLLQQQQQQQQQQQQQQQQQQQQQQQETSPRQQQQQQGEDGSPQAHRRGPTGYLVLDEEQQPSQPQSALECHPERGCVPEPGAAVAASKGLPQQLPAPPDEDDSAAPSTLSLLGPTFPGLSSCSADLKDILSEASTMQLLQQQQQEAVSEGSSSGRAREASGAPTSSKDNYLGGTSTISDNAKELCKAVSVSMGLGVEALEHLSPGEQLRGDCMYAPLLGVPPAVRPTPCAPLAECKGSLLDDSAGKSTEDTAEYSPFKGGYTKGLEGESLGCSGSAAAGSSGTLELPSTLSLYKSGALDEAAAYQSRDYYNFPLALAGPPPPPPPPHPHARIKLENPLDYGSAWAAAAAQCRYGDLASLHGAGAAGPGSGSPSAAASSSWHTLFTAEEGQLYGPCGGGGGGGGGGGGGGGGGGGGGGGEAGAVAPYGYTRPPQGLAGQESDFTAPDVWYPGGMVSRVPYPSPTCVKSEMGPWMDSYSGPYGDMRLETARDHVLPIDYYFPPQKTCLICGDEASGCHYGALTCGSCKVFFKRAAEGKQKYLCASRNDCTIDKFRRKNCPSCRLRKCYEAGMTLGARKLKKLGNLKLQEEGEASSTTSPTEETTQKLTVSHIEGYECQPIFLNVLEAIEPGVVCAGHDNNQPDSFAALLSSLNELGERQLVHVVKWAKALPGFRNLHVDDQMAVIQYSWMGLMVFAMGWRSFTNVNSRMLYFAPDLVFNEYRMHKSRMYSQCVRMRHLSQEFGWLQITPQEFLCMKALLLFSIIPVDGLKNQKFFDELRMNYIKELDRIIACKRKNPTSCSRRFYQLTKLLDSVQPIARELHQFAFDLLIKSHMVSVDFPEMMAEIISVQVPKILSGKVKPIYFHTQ
Experimental: Four nuclear receptors: glucocorticoid, androgen, LXRα, and LXRβ were assayed. Inhibition of agonist binding to each of the receptors was carried out following a standard protocol by Eurofins, Inc., USA. Compounds were tested at 10 µM. Compound binding was measured by scintillation counting and was calculated as a % inhibition of the binding of a radioactively labeled ligand specific for each target. Percent inhibition of control specific binding was expressed as
100−[(measured specific binding)/(control specific binding)∗100]
where measured specific binding is the amount of radioactive ligand binding obtained in the presence of test compounds.
(iii) LXRα (human) recombinant protein expressed in E. coli; agonist radioligand 20 nM [^3H] […] (iv) LXRβ (human) recombinant protein expressed in E. coli; agonist radioligand 20 nM [^3H]

CYP3A4 = molecular target: T2, CYP3A4 (Homo sapiens, UniProt P08684); experiment: inhibition of CYP3A4 enzymatic activity in human liver microsomes; format: in vitro ADME
T2 construct: Human liver microsomes (150 donors pooled, male & female, Corning, Cat# 452117) were used as a source of CYP3A4; tissue Corning 452117; host or cells: pooled human liver microsomes (150 donors)
T2 sequence (P08684 whole entry): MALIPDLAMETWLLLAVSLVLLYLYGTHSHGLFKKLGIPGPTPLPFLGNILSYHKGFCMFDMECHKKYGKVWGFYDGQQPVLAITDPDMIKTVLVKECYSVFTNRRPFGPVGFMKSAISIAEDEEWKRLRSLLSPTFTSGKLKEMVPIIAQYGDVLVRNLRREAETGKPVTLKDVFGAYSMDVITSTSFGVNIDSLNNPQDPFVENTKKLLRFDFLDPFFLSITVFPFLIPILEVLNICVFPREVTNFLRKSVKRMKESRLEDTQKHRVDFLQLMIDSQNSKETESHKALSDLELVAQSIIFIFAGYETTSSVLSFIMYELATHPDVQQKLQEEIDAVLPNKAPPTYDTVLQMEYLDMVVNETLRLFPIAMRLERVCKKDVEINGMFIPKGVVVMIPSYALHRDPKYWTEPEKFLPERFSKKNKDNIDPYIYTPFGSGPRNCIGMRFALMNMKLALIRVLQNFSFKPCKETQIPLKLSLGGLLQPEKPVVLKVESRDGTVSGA
Experimental: Inhibition of CYP3A4 enzymatic activity was carried out following a standard protocol by Pharmaron, Inc. Human liver microsomes (150 donors pooled, male & female, Corning, Cat# 452117) were used as a source of CYP3A4. The final concentration of human liver microsomes was 0.2 mg/mL. CYP3A4 was tested with testosterone (stock: 10 mM, final: 50 µM) or midazolam (stock: 1 mM, final: 5 µM) as substrate. Aliquots (1 µL) of test compounds (20 µM final concentration), positive control compound ketoconazole (20 µM final concentration), or buffer blank were transferred to a multi-well plate. The reaction was initiated with the addition of 20 µL of 10 mM NADPH solution to provide a final concentration of 1 mM in a 200 µL total volume and carried out at 37°C. The reaction was stopped by the addition of 1.5 volumes of methanol with incubation solution (100 nM alprazolam, 200 nM imipramine, 200 nM labetalol, and 2 µM ketoprofen) at designated time points (5 min midazolam-mediated CYP3A4; 10 min testosterone-mediated CYP3A4). The plate was centrifuged at 3,220 × g for 40 min to precipitate protein. Aliquots of 100 µL of the supernatant were diluted with 100 µL ultra-pure H2O, and the mixture was used for LC-MS/MS analysis to determine concentration of product (hydroxymidazolam or hydroxytestosterone) formed. The % inhibition was calculated by comparison with no inhibitor control. All experiments were performed in duplicate.

[1] = system: human type 1 5α-reductase; design: method as in PMID 8057283; details: cited from earlier work
in vivo = details: female, Balb/c, mouse, po, 100 mg/kg
Experimental: Compound 5 was solubilized in 5% DMSO in 10% Solutol with 100 mM citrate buffer (pH 3) and was tested in Balb/c female mice, approximately 8 weeks old and 20 g, at 100 mg/kg with or without 10 mg/kg rifampicin. Mice (n = 3 per group) were treated PO with drug or vehicle once daily at 8 AM. Body weights were measured daily prior to dosing. […] On day 5, mice were sacrificed at 6 h post-dose, and whole blood and plasma were extracted for complete blood count and blood chemistry profiling on an Element HT5 system (Heska, USA) and plasma drug concentration analysis was performed by LC-MS (Sciex API 4500 Triple Quad, Shimadzu LC-30A). Calibration curves were prepared as described above for in vivo metabolism and pharmacokinetics.

Row | SMILES | M. leprae 3β-HSD activity (cholestenone production in axenic medium) (M. leprae 3β-HSD) | intracellular viability of M. leprae in vitro (M. leprae) | % inhibition observed, Androgen Receptor (Androgen Receptor; 10 µM) | inhibition at 10 µM (Androgen Receptor; read-out: % inhibition observed, Androgen Receptor) [%] | % inhibition observed, Cyp3A4 Midazolam Isoform (CYP3A4; 20 µM, midazolam substrate) | % inhibition observed, Cyp3A4 Testosterone Isoform (CYP3A4; 20 µM, testosterone substrate) | inhibition at 5 min, 20 µM (CYP3A4; both sexes, probe midazolam (5 µM), midazolam substrate, read-out: % inhibition observed, Cyp3A4 Midazolam Isoform) [%] | inhibition at 10 min, 20 µM (CYP3A4; both sexes, probe testosterone (50 µM), testosterone substrate, read-out: % inhibition observed, Cyp3A4 Testosterone Isoform) [%] | inhibition of human type 1 5α-reductase [1] | concentration at 6 h (in vivo) [µM]
1 | CC(C)(C)c1ccc(C(C)(C)C)c(NC(=O)C2CCC3C4CNC5=CC(=O)CC[C@]5(C)C4CC[C@]23C)c1 (stereo partly shown) [Compound 1] | inhibits M. leprae 3β-HSD activity | reduce the intracellular viability of M. leprae in vitro | – | – | – | – | – | – | – | –
2 | C[C@]12CCC3C(CNC4=CC(=O)CC[C@@]43C)C1CCC2C(=O)NC(c1ccc(F)cc1)c1ccc(F)cc1 (stereo partly shown) [Compound 5] | – | – | low binding | 9.1 | strongly inhibits | strongly inhibits | 79 | 68 | nanomolar inhibitor | 292 ± 59
